Reference: ChEMBL document CHEMBL1122717, “Oxidation of sparteines by cytochrome P-450: evidence against the formation of N-oxides” (J Med Chem, 1984)

Species: Rattus norvegicus
Assay: Compound was evaluated for percent inhibition of antiarrhythmic activity catalyzed by cytochrome P-450 UT-H in liver microsomes of rats
Type: functional
Settings: dose or concentration not given here

Structure (SMILES): C1CCN2C[C@@H]3C[C@@H](CN4CCCC[C@@H]34)[C@H]2C1
- inhibition: > 95%
